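48-hour exposure; five concentrations; linearly interpolated endpoints. Here, GI50 denotes the concentration required for 50% inhibition of growth.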 Active and inactive are the calls of the source. Cut-off read from the data, not from the text of the source: active = GI50 up to about 1.1 µM and inactive = higher.
How the values were obtained:
Test in all cases: inhibition of tumour cell growth, NCI panel, 48 h
NCI-H460 = system: NCI-H460
786-0 = system: 786-0
HCT-15 = system: HCT-15
KM12 = system: KM12
MOLT-4 = system: MOLT-4
A498 = system: A498
SK-OV-3 = system: SK-OV-3
K562 = system: K562
UO-31 = system: UO-31
A549 = system: A549
HOP-62 = system: HOP-62
HCC 2998 = system: HCC 2998
ACHN = system: ACHN
EKVX = system: EKVX
LOX IMVI = system: LOX IMVI
HCT-116 = system: HCT-116

Row | SMILES | GI50 (NCI-H460) | GI50 (786-0) | GI50 (HCT-15) [µM] | GI50 (KM12) | GI50 (MOLT-4) | GI50 (A498) | GI50 (SK-OV-3) | GI50 (K562) | GI50 (UO-31) | GI50 (A549) | GI50 (HOP-62) | GI50 (HCC 2998) | GI50 (ACHN) | GI50 (EKVX) | GI50 (LOX IMVI) | GI50 (HCT-116)
1 | CC(=O)c1c(C)[n+]([O-])c2cc(C)c(C)cc2[n+]1[O-] | > 100 µM (inactive) | > 100 µM (inactive) | > 100 | > 100 µM (inactive) | > 100 µM (inactive) | > 100 µM (inactive) | > 100 µM (inactive) | > 100 µM (inactive) | > 100 µM (inactive) | > 100 µM (inactive) | > 100 µM (inactive) | > 100 µM (inactive) | > 100 µM (inactive) | > 100 µM (inactive) | > 100 µM (inactive) | –
2 | Nc1nc2c(ncn2CCOC(c2ccccc2)P(=O)(O)O)c(=O)[nH]1 (configuration not stated) | > 100 µM (inactive) | > 100 µM (inactive) | > 100 | > 100 µM (inactive) | – | > 100 µM (inactive) | > 100 µM (inactive) | – | > 100 µM (inactive) | > 100 µM (inactive) | – | > 100 µM (inactive) | > 100 µM (inactive) | > 100 µM (inactive) | > 100 µM (inactive) | > 100 µM (inactive)
3 | COC(=O)C(=O)C(/C(=N/N)C(=O)Nc1ccccc1C(N)=O)c1nc2ccc([N+](=O)[O-])cc2nc1O (configuration not stated) | > 100 µM (inactive) | > 100 µM (inactive) | > 100 | > 100 µM (inactive) | > 100 µM (inactive) | 1.01 µM (active) | – | > 100 µM (inactive) | 58.2 µM (inactive) | > 100 µM (inactive) | > 100 µM (inactive) | > 100 µM (inactive) | > 100 µM (inactive) | 18.4 µM (inactive) | > 100 µM (inactive) | > 100 µM (inactive)
4 | O=[N+]([O-])c1ccc(C2N3CCCCC3[C@H]3CCCCN23)cc1 (some centres not stated) | > 100 µM (inactive) | > 100 µM (inactive) | > 100 | > 100 µM (inactive) | > 100 µM (inactive) | > 100 µM (inactive) | > 100 µM (inactive) | > 100 µM (inactive) | > 100 µM (inactive) | > 100 µM (inactive) | > 100 µM (inactive) | – | > 100 µM (inactive) | > 100 µM (inactive) | > 100 µM (inactive) | > 100 µM (inactive)
5 | NC(=O)NNC(=O)CCn1[nH]c(=O)c(Cl)c(Cl)c1=O | > 100 µM (inactive) | > 100 µM (inactive) | > 100 | – | – | > 100 µM (inactive) | > 100 µM (inactive) | > 100 µM (inactive) | > 100 µM (inactive) | > 100 µM (inactive) | > 100 µM (inactive) | > 100 µM (inactive) | > 100 µM (inactive) | > 100 µM (inactive) | > 100 µM (inactive) | > 100 µM (inactive)
6 | O=c1[nH]c2nc3ccccc3c(=O)n2nc1Cc1ccccc1 | > 100 µM (inactive) | > 100 µM (inactive) | > 100 | > 100 µM (inactive) | > 100 µM (inactive) | – | 84.7 µM (inactive) | > 100 µM (inactive) | 56.8 µM (inactive) | > 100 µM (inactive) | 16.3 µM (inactive) | > 100 µM (inactive) | > 100 µM (inactive) | > 100 µM (inactive) | > 100 µM (inactive) | > 100 µM (inactive)
7 | O=C1OC2(OC2c2ccccc2)c2ccccc21 (configuration not stated) | > 100 µM (inactive) | > 100 µM (inactive) | > 100 | > 100 µM (inactive) | > 100 µM (inactive) | – | > 100 µM (inactive) | > 100 µM (inactive) | > 100 µM (inactive) | > 100 µM (inactive) | > 100 µM (inactive) | > 100 µM (inactive) | > 100 µM (inactive) | > 100 µM (inactive) | > 100 µM (inactive) | 5.05 µM (inactive)
8 | O=C(NCc1ccccc1)c1cc2ccc(O)c(O)c2cn1 | 21.7 µM (inactive) | 18 µM (inactive) | 26.7 | 33.2 µM (inactive) | – | > 100 µM (inactive) | > 100 µM (inactive) | 33.8 µM (inactive) | 18.1 µM (inactive) | 38.5 µM (inactive) | 21.3 µM (inactive) | > 100 µM (inactive) | 15.5 µM (inactive) | > 100 µM (inactive) | 3.82 µM (inactive) | 17.7 µM (inactive)
9 | COc1ccc(C2C(Cl)C(=O)N2n2cnc3ccccc3c2=O)cc1 (configuration not stated) | 70.5 µM (inactive) | 46.9 µM (inactive) | > 100 | > 100 µM (inactive) | 51.3 µM (inactive) | – | > 100 µM (inactive) | 89.7 µM (inactive) | 71 µM (inactive) | > 100 µM (inactive) | > 100 µM (inactive) | > 100 µM (inactive) | 40.5 µM (inactive) | 50.7 µM (inactive) | 77.6 µM (inactive) | 54.6 µM (inactive)
10 | CCc1cccc(C)c1NC(=O)C1=C(C)NC(C)=C(C(=O)Nc2c(C)cccc2CC)C1c1ccc2c(c1)OCO2 | 16.1 µM (inactive) | 16.7 µM (inactive) | – | 16.4 µM (inactive) | 21.2 µM (inactive) | 11.3 µM (inactive) | 48.9 µM (inactive) | 27.2 µM (inactive) | 15.3 µM (inactive) | 16.9 µM (inactive) | 20.7 µM (inactive) | 19.7 µM (inactive) | 15.5 µM (inactive) | 20.5 µM (inactive) | 18.3 µM (inactive) | –
11 | CCOc1ccccc1NC(=O)CC1C(=O)Nc2ccccc2[S+]1[O-] (configuration not stated) | 80 µM (inactive) | 63.1 µM (inactive) | > 100 | – | 10.5 µM (inactive) | > 100 µM (inactive) | – | 49.7 µM (inactive) | 85.3 µM (inactive) | > 100 µM (inactive) | – | > 100 µM (inactive) | 66.2 µM (inactive) | 43 µM (inactive) | > 100 µM (inactive) | > 100 µM (inactive)
12 | CCCCNC1CCCCC[C@H]1O (some centres not stated) | > 100 µM (inactive) | > 100 µM (inactive) | – | > 100 µM (inactive) | > 100 µM (inactive) | – | > 100 µM (inactive) | > 100 µM (inactive) | > 100 µM (inactive) | > 100 µM (inactive) | > 100 µM (inactive) | > 100 µM (inactive) | > 100 µM (inactive) | > 100 µM (inactive) | > 100 µM (inactive) | > 100 µM (inactive)
13 | CCC1C(=O)OCc2c1cc1n(c2=O)Cc2ccccc2-1 (configuration not stated) | > 100 µM (inactive) | > 100 µM (inactive) | > 100 | > 100 µM (inactive) | > 100 µM (inactive) | > 100 µM (inactive) | – | > 100 µM (inactive) | > 100 µM (inactive) | > 100 µM (inactive) | > 100 µM (inactive) | > 100 µM (inactive) | > 100 µM (inactive) | > 100 µM (inactive) | > 100 µM (inactive) | > 100 µM (inactive)
14 | O=C1CCc2ccc(O)c(c2)Oc2ccc(cc2)[C@@H]2O[C@@H]2CO1 | – | > 100 µM (inactive) | – | 72.8 µM (inactive) | 23.9 µM (inactive) | 29 µM (inactive) | 27 µM (inactive) | 24.6 µM (inactive) | 23.8 µM (inactive) | 56.8 µM (inactive) | > 100 µM (inactive) | > 100 µM (inactive) | 61.8 µM (inactive) | 59.8 µM (inactive) | 40.8 µM (inactive) | 48.2 µM (inactive)

Reference: ChEMBL document CHEMBL1201862, “PubChem BioAssay data set” (2004)
